Data taken from ChEMBL document CHEMBL6182924, “Discovery of a Novel and Potent MET Transcription Inhibitor Targeting Promoter G-Quadruplex for the Treatment of NSCLC” (J Med Chem, 2025).
The source made the active and inactive calls. The calls are words filed in the database; no cut-off is given here.

What was measured:
A549 [1] = test: Antiproliferative activity against human A549 cells incubated for 3 days by CCK-8 assay; format: functional, cell-based; conditions: A549, 72 h
BaF3 [2] = test: Antiproliferative activity against mouse BaF3 cells harboring TPR-MET L1195V mutant incubated for 24 hrs by CCK-8 assay; format: functional, cell-based; conditions: BaF3, 24 h
BaF3 [3] = test: Antiproliferative activity against mouse BaF3 cells harboring TPR-MET D1228N mutant incubated for 24 hrs by CCK-8 assay; format: functional, cell-based; conditions: BaF3, 24 h
BaF3 [4] = test: Antiproliferative activity against mouse BaF3 cells harboring TPR-MET […] mutant incubated for 24 hrs by CCK-8 assay; format: functional, cell-based; conditions: BaF3, 24 h
A549 [5] = test: Antitumor activity against human A549 cells xenografted in BALB/c mouse assessed as tumor growth inhibition at 20 mg/kg, po administered once a day and measured up to 24 days; format: functional; conditions: A549, 576 h, time <= 24 day, read-out: TGI
Quadruplex DNA = test: Binding affinity to G-quadruplex DNA (unknown origin) at 5 uM by fluorescence quenching analysis; format: nucleic-acid assay
A549 [6] = test: Downregulation of c-MYC expression in human A549 cells up to 2000 nM incubated for 72 hrs by Western blot analysis; format: functional, cell-based

IC50 (A549 [1]) | SMILES | other results
1200 nM | COc1cccc(C(=O)Nc2cccc(-c3cc4cccnc4c4ncccc34)c2)c1OC | 
890 nM | c1cnc2c(c1)c1nc(-c3cc(-c4ccc5c(c4)OCCO5)cs3)[nH]c1c1cccnc12 | 
4400 nM | COc1cc2nccc(Oc3ccc(NC(=O)C4(C(=O)Nc5ccc(F)cc5)CC4)cc3)c2cc1OC [CABOZANTINIB] | IC50 (BaF3 [2]): 920 nM; IC50 (BaF3 [3]): 5840 nM; IC50 (BaF3 [4]): 3980 nM; inhibition in vivo at 20 mg/kg (A549 [5]): 51.7%
4470 nM | Brc1ccc(-c2nc3c4cccnc4c4ncccc4c3[nH]2)o1 | 
1050 nM | N#Cc1cccc(-c2ccc(-c3nc4c5cccnc5c5ncccc5c4[nH]3)o2)c1 | 
3200 nM | O=[N+]([O-])c1ccc(-c2ccc(-c3nc4c5cccnc5c5ncccc5c4[nH]3)o2)cc1 | 
 | COc1cc(-c2nc3c4cccnc4c4ncccc4c3[nH]2)cc2c1OCO2 | Activity (Quadruplex DNA): Active
4950 nM | Cn1ccc(-c2ccc(-c3nc4c5cccnc5c5ncccc5c4[nH]3)o2)n1 | 
580 nM | COc1cccc(-c2csc(-c3nc4c5cccnc5c5ncccc5c4[nH]3)c2)c1 | 
6100 nM | Brc1csc(-c2nc3c4cccnc4c4ncccc4c3[nH]2)c1 | 
3720 nM | Cn1ccc(-c2csc(-c3nc4c5cccnc5c5ncccc5c4[nH]3)c2)n1 | 
1430 nM | Fc1cccc(-c2ccc(-c3nc4c5cccnc5c5ncccc5c4[nH]3)o2)c1 | 
800 nM | O=C(Nc1cccc(-c2cc3cccnc3c3ncccc23)c1)c1ccc2nccnc2c1 | Activity (A549 [6]): Active
3440 nM | O=C(Nc1cccc(-c2cc3cccnc3c3ncccc23)c1)c1ccc(Cl)nc1 | 
1790 nM | O=C(Nc1cccc(-c2cc3cccnc3c3ncccc23)c1)c1ccccc1 | 
4900 nM | N#Cc1ccc(-c2ccc(-c3nc4c5cccnc5c5ncccc5c4[nH]3)o2)cc1 | 
1130 nM | COc1ccc(C(=O)Nc2cccc(-c3cc4cccnc4c4ncccc34)c2)cc1 | 
2130 nM | Oc1ccc(-c2ccc(-c3nc4c5cccnc5c5ncccc5c4[nH]3)o2)cc1 | 
2510 nM | N#Cc1cccc(C(=O)Nc2cccc(-c3cc4cccnc4c4ncccc34)c2)c1 | 
6530 nM | N#Cc1cccc(-c2csc(-c3nc4c5cccnc5c5ncccc5c4[nH]3)c2)c1 | 
710 nM | c1cnc2c(c1)c1nc(-c3ccc(-c4ccc5c(c4)OCCO5)o3)[nH]c1c1cccnc12 | 
 | Nc1cccc(-c2cc3cccnc3c3ncccc23)c1 | Activity (Quadruplex DNA): Active
